Among the data in patent US9334267B2, “RAF inhibitor compounds” (Deciphera Pharmaceuticals, LLC, priority 2012, dated 2016) are IC50 values, retold here.

Assay [1] addresses T1, human wild type C-Raf (Homo sapiens, UniProt P04049).
T1 construct: made in house
Put plainly: Enzymatic assay of C-Raf kinase activity (Raf/MEK1 ATPase, coupled PK/LDH, A340). It is filed as biochemical. The note with it: read-out: Enzyme IC50, nM C-Raf. Here is the method:
Test compounds are evaluated for their inhibitory activities against one or more of human wild type B-Raf, human wild type C-Raf, human B-Raf V600E, human B-Raf V600E+T529I or human B-Raf V600E+G468A. T529I is a threonine to isoleucine B-Raf gatekeeper mutation and G468A is a B-Raf secondary mutation at G1403C in exon 11. The enzymatic assays of B-Raf, C-Raf and B-Raf mutations evaluate a property of Raf and MEK1 complex, which in the presence of ATP, catalyzes an enhanced ATP hydrolysis (Rominger, et al, Arch. Biochem. Biophys. 2007, 464: 130-137; US Patent Publication No. 2006/0211073). The ADP formed is monitored by the well-known coupled PK/LDH (pyruvate kinase/lactate dehydrogenase) system in the form of NADH oxidation, which can be monitored and detected spectrophotometrically by absorbance at 340 nm (A340; for principal of the method see Schindler et al, Science, 2000, 289: 1938-1942). Raf activated MEK1 ATPase activity is a property shared by all forms of Raf proteins.
Test compounds are evaluated for their inhibitory activities against one or more of wild type B-Raf, wild type C-Raf, B-Raf V600E, B-Raf V600E+T529I and B-Raf V600E+G468A. T529I is a B-Raf gatekeeper mutation and G468A is a B-Raf secondary mutation. The enzymatic assays of B-Raf, C-Raf and B-Raf mutations evaluate a property of Raf and MEK1 complex, which in the presence of ATP, catalyzes an enhanced ATP hydrolysis (Rominger, et al, Arch. Biochem. Biophys. 2007, 464: 130-137). The ADP formed is monitored by the well-known coupled PK/LDH (pyruvate kinase/lactate dehydrogenase) system in the form of NADH oxidation, which can be monitored and detected by absorbance at 340 nm (A340; for principal of the method see Schindler et al, Science, 2000, 289: 1938-1942). Raf activated MEK1 ATPase activity is a property shared by all forms of Raf proteins. In the B-Raf wild type enzymatic assay, the reaction mixture contains 1.2 nM B-Raf, 30 nM MEK1, 1000 uM ATP, 3.5 units (per 100 ul) of PK, 5 units (per 100 ul) of LDH, 1 mM phosphoenol pyruvate (PEP), and 280 uM of NADH. In the C-Raf assay, the reaction mixture contains 0.6 nM C-Raf, 26 nM MEK1, 2000 uM ATP, and the same amount of PK, LDH, PEP and NADH as above. In the B-Raf V600E assay, the reaction mixture contains […] B-Raf V600E, 26 nM MEK1, 200 uM ATP and the same amount of PK, LDH, PEP and NADH as above. In the B-RafV600E+T529I assay, the reaction mixture contains 6.2 nM B-Raf V600E+T529I, 30 nM MEK1, 200 uM ATP and the same amount of PK, LDH, PEP and NADH as above. In the B-Raf V600E+G468A assay, the reaction mixture contains 3.5 nM B-Raf, 30 nM MEK1, 200 uM ATP and the same amount of PK, LDH, PEP and NADH as above. All assays are started by mixing the above mixture with test compound and monitoring at A340 continuously for approximately 5 hr. […] In the aforementioned assays, the enzyme constructs can be screened prior to or after cleavage of the N-terminal purification tag.

Assay [2] has as its system A375 cells. The assay can be described thus: A375 cell proliferation assay (CellTiter-Blue/resazurin). In kind it is cell-based. The note with it: Homo sapiens, A-375, V600E mutation, read-out: Cell Proliferation Inhibition IC50, nM A375. Here is the method: (§1) A375 cells (catalog #CRL-1619) are obtained from the American Type Culture Collection (ATCC, Manassas, Va.). Briefly, cells are grown in DMEM High Glucose supplemented with 10% characterized fetal bovine serum (Invitrogen, Carlsbad, Calif.) and 1% Penicillin/Streptomycin/L-Glutamine at 37 degrees Celsius, 5% CO2, and 95% humidity. Cells are allowed to expand until reaching 70-95% confluency at which point they are subcultured or harvested for assay use. A serial dilution of test compound is dispensed into a 384-well black clear bottom plate in triplicate. Six hundred twenty-five cells are added per well in 50 μL complete growth medium in the 384-well plate. Plates are incubated for 67 hours at 37 degrees Celsius, 5% CO2, and 95% humidity. At the end of the incubation period, 10 μL of a 440 μM solution of resazurin (Sigma, St. Louis, Mo.) in PBS is added to each well of the plate and plates are incubated for an additional 5 hours at 37 degrees Celsius, 5% CO2, and 95% humidity. Plates are read on a Synergy2 reader (Biotek, Winooski, Vt.) using an excitation of 540 nm and an emission of 600 nm. Data is analyzed using Prism software (Graphpad, San Diego, Calif.) to calculate IC50 values.
(§2) The A375, HT-29, and Colo-205 cells (ATCC) harbor a V600E mutation.

Assay [3] concerns Colo205 cells. Put plainly: Colo-205 cell proliferation assay (resazurin). The note with it: Homo sapiens; Colo-205 cells, V600E mutation; read-out: Cell Proliferation Inhibition IC50, nM Colo-205. It is filed as cell-based. As for the experimental part: as §1, with “Colo205 cells” for “A375 cells”, “(catalog #HB-8307)” for “(catalog #CRL-1619)”, “in RPMI 1640” for “in DMEM High Glucose”, “Carlsbad, Calif.), 1 mM sodium pyruvate,” for “Carlsbad, Calif.)”, “reaching 30-60%” for “reaching 70-95%”, “triplicate. One thousand two-hundred fifty” for “triplicate. Six hundred twenty-five”
as §2
Background: The colour change of resazurin is a common sign of viable cells or microbes.

The subject of assay [4] is Sk-Mel-2 cells. The assay can be described thus: SK-Mel-2 cell proliferation assay (resazurin). It is filed as cell-based. The following applies: Homo sapiens, N-Ras mutation B-Raf wild type, read-out: Cell Proliferation Inhibition IC50, nM SK-Mel-2.

T1 sequence (P04049 whole entry): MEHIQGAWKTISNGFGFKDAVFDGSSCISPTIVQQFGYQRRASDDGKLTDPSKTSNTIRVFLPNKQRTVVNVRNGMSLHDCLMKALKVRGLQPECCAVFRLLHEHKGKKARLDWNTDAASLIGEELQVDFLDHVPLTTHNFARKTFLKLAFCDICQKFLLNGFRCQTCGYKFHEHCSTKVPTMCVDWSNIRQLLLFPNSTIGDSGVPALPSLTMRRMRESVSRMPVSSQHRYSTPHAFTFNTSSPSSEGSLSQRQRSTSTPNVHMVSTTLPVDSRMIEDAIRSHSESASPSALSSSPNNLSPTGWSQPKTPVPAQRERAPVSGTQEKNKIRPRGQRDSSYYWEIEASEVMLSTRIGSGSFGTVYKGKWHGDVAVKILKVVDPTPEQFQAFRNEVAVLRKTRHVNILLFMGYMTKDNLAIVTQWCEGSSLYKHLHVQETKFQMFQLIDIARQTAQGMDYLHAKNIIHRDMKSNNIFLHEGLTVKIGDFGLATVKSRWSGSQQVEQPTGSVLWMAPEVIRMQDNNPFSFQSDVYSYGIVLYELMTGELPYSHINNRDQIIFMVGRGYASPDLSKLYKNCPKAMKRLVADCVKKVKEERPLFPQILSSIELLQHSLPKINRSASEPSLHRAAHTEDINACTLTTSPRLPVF

Regarding `CNc1ncc2cc(-c3cc(NC(=O)NCCC(C)(C)C#N)c(F)cc3C)c(C)nc2n1` [Example 3, 1-(3-Cyano-3-methylbutyl)-3-(2-fluoro-4-methyl-5-(7-methyl-2-(methylamino)pyrido[2,3-d]pyrimidin-6-yl)phenyl)urea], the IC50 in assay [1] is less than 150 nM; in assay [2], less than 100 nM; in assay [3], less than 100 nM; in assay [4] it was 100 to 1000 nM.

For the compound `CNc1ncc2cc(-c3cc(NC(=O)NCCC(C)(C)C)c(F)cc3F)cnc2n1` [Example 36, 1-(2,4-Difluoro-5-(2-(methylamino)pyrido[2,3-d]pyrimidin-6-yl)phenyl)-3-(3,3-dimethylbutyl)urea methanesulfonate], the IC50 is less than 150 nM in assay [1], 1000 to 10000 nM in assay [2], 1000 to 10000 nM in assay [3] and 1000 to 10000 nM in assay [4].

Take `CNc1ncc2cc(-c3cc(NC(=O)NC[C@@H](O)C(C)(C)C)c(F)cc3C)cnc2n1` [Example 19, 1-[2-fluoro-4-methyl-5-(2-methylaminopyrido[2,3-d]pyrimidin-6-yl)phenyl]-3-[(2S)-2-hydroxy-3,3-dimethyl-butyl]urea]: the IC50 in assay [1] was less than 150 nM; in assay [2] it was 100 to 1000 nM; in assay [3], 100 to 1000 nM; in assay [4], 100 to 1000 nM.

As for `CNc1ncc2cc(-c3ccc(F)c(NC(=O)NCCC(C)(C)C#N)c3)c(C)nc2n1` [Example 13, 1-(3-Cyano-3-methylbutyl)-3-(2-fluoro-5-(7-methyl-2-(methylamino)pyrido[2,3-d]pyrimidin-6-yl)phenyl)urea], the IC50 in assay [1] was less than 150 nM; in assay [2], 1000 to 10000 nM; in assay [3], 100 to 1000 nM; in assay [4], 100 to 1000 nM.

`CNc1ncc2cc(-c3cc(NC(=O)NCCC(C)(C)C)c(F)cc3Br)c(C)nc2n1` [Example 32, 1-(4-Bromo-2-fluoro-5-(7-methyl-2-(methylamino)pyrido[2,3-d]pyrimidin-6-yl)phenyl)-3-(3,3-dimethylbutyl)urea]: the IC50 in assay [1] was less than 150 nM; in assay [2], less than 100 nM; in assay [3], less than 100 nM; in assay [4], 100 to 1000 nM.

In the case of `CNc1ncc2cc(-c3cc(NC(=O)NC4CC(C)(C)C4)c(F)cc3C)c(C)nc2n1` [Example 6, 1-(3,3-Dimethylcyclobutyl)-3-(2-fluoro-4-methyl-5-(7-methyl-2-(methylamino)pyrido[2,3-d]pyrimidin-6-yl)phenyl)urea], the IC50 is less than 150 nM in assay [1], less than 100 nM in assay [2], less than 100 nM in assay [3] and less than 100 nM in assay [4].

With `Cc1cc(F)c(NC(=O)NCCC(C)(C)F)cc1-c1cc2cnc(NCCO)nc2nc1C` [Example 29, 1-(3-Fluoro-3-methylbutyl)-3-(2-fluoro-5-(2-((2-hydroxyethyl)amino)-7-methylpyrido[2,3-d]pyrimidin-6-yl)-4-methylphenyl)urea], the IC50 was less than 150 nM in assay [1], 1000 to 10000 nM in assay [2], 100 to 1000 nM in assay [3] and 1000 to 10000 nM in assay [4].

Regarding `CNc1ncc2cc(-c3cc(NC(=O)NCCC(C)(C)OC)c(F)cc3C)c(C)nc2n1` [Example 14, 1-(2-Fluoro-4-methyl-5-(7-methyl-2-(methylamino)pyrido[2,3-d]pyrimidin-6-yl)phenyl)-3-(3-methoxy-3-methylbutyl)urea], the IC50 in assay [1] is less than 150 nM; in assay [2] it was 100 to 1000 nM; in assay [3] it was less than 100 nM; in assay [4] it was 1000 to 10000 nM.

Consider `Cc1cc(F)c(NC(=O)NCCC2(C)CC2)cc1-c1cc2cnc(N)nc2nc1C` [Example 23, 1-(5-(2-Amino-7-methylpyrido[2,3-d]pyrimidin-6-yl)-2-fluoro-4-methylphenyl)-3-(2-(1-methylcyclopropyl)ethyl)urea], for which the IC50 was less than 150 nM in assay [1], 100 to 1000 nM in assay [2], less than 100 nM in assay [3] and 100 to 1000 nM in assay [4].

In the case of `CNc1ncc2cc(-c3cc(NC(=O)NCC4CC4(C)C)c(F)cc3C)cnc2n1` (centres unmarked) [Example 9], the IC50 in assay [1] was less than 150 nM; in assay [2], 100 to 1000 nM; in assay [3], 100 to 1000 nM; in assay [4] it was 100 to 1000 nM.

For `Cc1cc(F)c(NC(=O)NCC(O)C(C)(C)C)cc1-c1cc2cnc(N)nc2nc1C` (centres unmarked) [Example 10], the IC50 in assay [1] was less than 150 nM; in assay [2], 100 to 1000 nM; in assay [3], 100 to 1000 nM; in assay [4] it was 1000 to 10000 nM.

For the compound `CNc1ncc2cc(-c3cc(NC(=O)NC4CC(C)(C)C4)c(F)cc3F)c(C)nc2n1` [Example 7, 1-(2,4-Difluoro-5-(7-methyl-2-(methylamino)pyrido[2,3-d]pyrimidin-6-yl)phenyl)-3-(3,3-dimethylcyclobutyl)urea], the IC50 was less than 150 nM in assay [1], less than 100 nM in assay [2], less than 100 nM in assay [3] and less than 100 nM in assay [4].

Regarding `CNc1ncc2cc(-c3cc(NC(=O)NCCC(C)(C)C#N)c(F)cc3F)c(C)nc2n1` [Example 12, 1-(3-Cyano-3-methylbutyl)-3-(2,4-difluoro-5-(7-methyl-2-(methylamino)pyrido[2,3-d]pyrimidin-6-yl)phenyl)urea], the IC50 was less than 150 nM in assay [1], 1000 to 10000 nM in assay [2], 100 to 1000 nM in assay [3] and 100 to 1000 nM in assay [4].

Regarding `CNc1ncc2cc(-c3cc(NC(=O)NCC(O)C(C)(C)C)c(F)cc3F)c(C)nc2n1` (centres unmarked) [Example 11, 1-[2,4-Difluoro-5-(7-methyl-2-methylamino-pyrido[2,3-d]pyrimidin-6-yl)phenyl]-3-(2-hydroxy-3,3-dimethyl-butyl)urea], the IC50 in assay [1] was less than 150 nM; in assay [2] it was 100 to 1000 nM; in assay [3], 100 to 1000 nM; in assay [4], 100 to 1000 nM.
